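Five compound concentrations were applied to cells in 96-well plates for 48 hours; endpoints were derived by simple linear interpolation of the resulting dose-response curve. GI50: concentration for 50% inhibition of growth.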 Calls of active or inactive are those of the source. Rule as the data show it: active = GI50 up to about 1.1 µM and inactive = higher.
Columns and labels:
Assay in all cases: NCI tumour cell line growth inhibition, 48 h
DU-145 = tested on: DU-145
BT-549 = tested on: BT-549
UACC-62 = tested on: UACC-62
SNB-19 = tested on: SNB-19
NCI-H23 = tested on: NCI-H23
SF-268 = tested on: SF-268
HCC 2998 = tested on: HCC 2998
OVCAR-3 = tested on: OVCAR-3
SN12C = tested on: SN12C
T47D = tested on: T47D
Malme-3M = tested on: Malme-3M
K562 = tested on: K562
SK-OV-3 = tested on: SK-OV-3
HCT-15 = tested on: HCT-15
MCF7 = tested on: MCF7
RPMI-8226 = tested on: RPMI-8226
SK-MEL-28 = tested on: SK-MEL-28
U-251 = tested on: U-251
SNB-75 = tested on: SNB-75
SR = tested on: SR
Hs-578T = tested on: Hs-578T
NCI-H522 = tested on: NCI-H522
NCI-H226 = tested on: NCI-H226
A549 = tested on: A549
KM12 = tested on: KM12
786-0 = tested on: 786-0
LOX IMVI = tested on: LOX IMVI
SF-295 = tested on: SF-295
HT-29 = tested on: HT-29
UO-31 = tested on: UO-31
OVCAR-5 = tested on: OVCAR-5
M14 = tested on: M14
CAKI-1 = tested on: CAKI-1
ACHN = tested on: ACHN
HOP-62 = tested on: HOP-62
OVCAR-4 = tested on: OVCAR-4
MDA-MB-435 = tested on: MDA-MB-435
SK-MEL-2 = tested on: SK-MEL-2
IGROV-1 = tested on: IGROV-1
A498 = tested on: A498
SW-620 = tested on: SW-620
TK-10 = tested on: TK-10
SK-MEL-5 = tested on: SK-MEL-5
COLO 205 = tested on: COLO 205
MDA-MB-231 = tested on: MDA-MB-231
PC-3 = tested on: PC-3
SF-539 = tested on: SF-539
MDA-N = tested on: MDA-N
EKVX = tested on: EKVX
HCT-116 = tested on: HCT-116
UACC-257 = tested on: UACC-257
NCI-H460 = tested on: NCI-H460
RXF 393 = tested on: RXF 393
OVCAR-8 = tested on: OVCAR-8
NCI/ADR-RES = tested on: NCI/ADR-RES
HOP-92 = tested on: HOP-92
HL-60 = tested on: HL-60
MOLT-4 = tested on: MOLT-4
CCRF-CEM = tested on: CCRF-CEM

Cc1ccc(S(=O)(=O)NC(=O)OC23COCN2COC3)cc1
GI50 (DU-145): > 100 µM (inactive)
GI50 (BT-549): > 100 µM (inactive)
GI50 (UACC-62): > 100 µM (inactive)
GI50 (SNB-19): > 100 µM (inactive)
GI50 (NCI-H23): > 100 µM (inactive)
GI50 (SF-268): > 100 µM (inactive)
GI50 (HCC 2998): > 100 µM (inactive)
GI50 (OVCAR-3): > 100 µM (inactive)
GI50 (SN12C): > 100 µM (inactive)
GI50 (T47D): 69.5 µM (inactive)
GI50 (Malme-3M): > 100 µM (inactive)
GI50 (K562): > 100 µM (inactive)
GI50 (SK-OV-3): > 100 µM (inactive)
GI50 (HCT-15): > 100 µM
GI50 (MCF7): 91 µM (inactive)
GI50 (RPMI-8226): 29.5 µM (inactive)
GI50 (SK-MEL-28): > 100 µM (inactive)
GI50 (U-251): > 100 µM (inactive)
GI50 (SNB-75): > 100 µM (inactive)
GI50 (SR): 31.6 µM (inactive)
GI50 (Hs-578T): > 100 µM (inactive)
GI50 (NCI-H522): > 100 µM (inactive)
GI50 (NCI-H226): > 100 µM (inactive)
GI50 (A549): > 100 µM (inactive)
GI50 (KM12): > 100 µM (inactive)
GI50 (786-0): > 100 µM (inactive)
GI50 (LOX IMVI): > 100 µM (inactive)
GI50 (SF-295): > 100 µM (inactive)
GI50 (HT-29): > 100 µM (inactive)
GI50 (UO-31): > 100 µM (inactive)
GI50 (OVCAR-5): > 100 µM (inactive)
GI50 (M14): > 100 µM (inactive)
GI50 (CAKI-1): > 100 µM (inactive)
GI50 (ACHN): > 100 µM (inactive)
GI50 (HOP-62): > 100 µM (inactive)
GI50 (OVCAR-4): > 100 µM (inactive)
GI50 (MDA-MB-435): > 100 µM (inactive)
GI50 (SK-MEL-2): > 100 µM (inactive)
GI50 (IGROV-1): > 100 µM (inactive)
GI50 (A498): > 100 µM (inactive)
GI50 (SW-620): 81.7 µM (inactive)
GI50 (TK-10): > 100 µM (inactive)
GI50 (SK-MEL-5): > 100 µM (inactive)
GI50 (COLO 205): > 100 µM (inactive)
GI50 (MDA-MB-231): > 100 µM (inactive)
GI50 (PC-3): > 100 µM (inactive)
GI50 (SF-539): > 100 µM (inactive)
GI50 (MDA-N): > 100 µM (inactive)
GI50 (EKVX): > 100 µM (inactive)
GI50 (HCT-116): > 100 µM (inactive)
GI50 (UACC-257): > 100 µM (inactive)
GI50 (NCI-H460): > 100 µM (inactive)
GI50 (RXF 393): > 100 µM (inactive)
GI50 (OVCAR-8): > 100 µM (inactive)
GI50 (NCI/ADR-RES): > 100 µM (inactive)
GI50 (HOP-92): > 100 µM (inactive)

C/C=C(/COC(C)=O)C(=O)OC1C=C(C=O)C(C)(C)C=C1C (stereo unspecified)
GI50 (DU-145): > 100 µM (inactive)
GI50 (BT-549): > 100 µM (inactive)
GI50 (UACC-62): > 100 µM (inactive)
GI50 (SNB-19): > 100 µM (inactive)
GI50 (NCI-H23): > 100 µM (inactive)
GI50 (SF-268): > 100 µM (inactive)
GI50 (HCC 2998): > 100 µM (inactive)
GI50 (SN12C): > 100 µM (inactive)
GI50 (T47D): > 100 µM (inactive)
GI50 (Malme-3M): > 100 µM (inactive)
GI50 (K562): 43.5 µM (inactive)
GI50 (SK-OV-3): > 100 µM (inactive)
GI50 (HCT-15): > 100 µM
GI50 (MCF7): 87.7 µM (inactive)
GI50 (SK-MEL-28): > 100 µM (inactive)
GI50 (HL-60): 45.1 µM (inactive)
GI50 (U-251): > 100 µM (inactive)
GI50 (SNB-75): 43.6 µM (inactive)
GI50 (SR): 27.5 µM (inactive)
GI50 (Hs-578T): > 100 µM (inactive)
GI50 (NCI-H522): > 100 µM (inactive)
GI50 (NCI-H226): > 100 µM (inactive)
GI50 (A549): > 100 µM (inactive)
GI50 (KM12): > 100 µM (inactive)
GI50 (786-0): > 100 µM (inactive)
GI50 (LOX IMVI): > 100 µM (inactive)
GI50 (SF-295): > 100 µM (inactive)
GI50 (HT-29): > 100 µM (inactive)
GI50 (UO-31): > 100 µM (inactive)
GI50 (OVCAR-5): > 100 µM (inactive)
GI50 (M14): > 100 µM (inactive)
GI50 (CAKI-1): > 100 µM (inactive)
GI50 (ACHN): > 100 µM (inactive)
GI50 (OVCAR-4): > 100 µM (inactive)
GI50 (MDA-MB-435): > 100 µM (inactive)
GI50 (SK-MEL-2): > 100 µM (inactive)
GI50 (IGROV-1): 96.6 µM (inactive)
GI50 (MOLT-4): > 10 µM (inactive)
GI50 (A498): > 100 µM (inactive)
GI50 (SW-620): > 100 µM (inactive)
GI50 (TK-10): > 100 µM (inactive)
GI50 (SK-MEL-5): > 100 µM (inactive)
GI50 (COLO 205): > 100 µM (inactive)
GI50 (MDA-MB-231): > 100 µM (inactive)
GI50 (PC-3): > 100 µM (inactive)
GI50 (SF-539): > 100 µM (inactive)
GI50 (MDA-N): > 100 µM (inactive)
GI50 (EKVX): > 100 µM (inactive)
GI50 (HCT-116): > 100 µM (inactive)
GI50 (UACC-257): > 100 µM (inactive)
GI50 (NCI-H460): > 100 µM (inactive)
GI50 (OVCAR-8): > 100 µM (inactive)
GI50 (NCI/ADR-RES): > 100 µM (inactive)
GI50 (HOP-92): > 100 µM (inactive)
GI50 (CCRF-CEM): 37.7 µM (inactive)

CCC(C)C(=O)OC1CC2(C)C(c3ccoc3)OC(=O)CC23OC2(C)OC34C(OC(=O)C(C)C)C3(O)C(OC(=O)C5(C)OC5C)C5(C)CC3(O)C(C)(C5CC(=O)OC)C14O2 (stereo unspecified)
GI50 (DU-145): 68.2 µM (inactive)
GI50 (BT-549): 60.7 µM (inactive)
GI50 (UACC-62): 86.9 µM (inactive)
GI50 (SNB-19): 32.6 µM (inactive)
GI50 (NCI-H23): 54.3 µM (inactive)
GI50 (SF-268): 47.2 µM (inactive)
GI50 (HCC 2998): 66.8 µM (inactive)
GI50 (SN12C): > 100 µM (inactive)
GI50 (T47D): 23.1 µM (inactive)
GI50 (Malme-3M): > 100 µM (inactive)
GI50 (K562): 27.8 µM (inactive)
GI50 (SK-OV-3): > 100 µM (inactive)
GI50 (HCT-15): 40.6 µM
GI50 (MCF7): 17.6 µM (inactive)
GI50 (SK-MEL-28): > 100 µM (inactive)
GI50 (HL-60): 15.6 µM (inactive)
GI50 (U-251): 86.1 µM (inactive)
GI50 (SNB-75): 15.5 µM (inactive)
GI50 (SR): 24.1 µM (inactive)
GI50 (Hs-578T): 14.5 µM (inactive)
GI50 (NCI-H522): 37 µM (inactive)
GI50 (NCI-H226): 51.6 µM (inactive)
GI50 (A549): 34.3 µM (inactive)
GI50 (KM12): 43 µM (inactive)
GI50 (786-0): > 100 µM (inactive)
GI50 (LOX IMVI): 52.7 µM (inactive)
GI50 (SF-295): 41.1 µM (inactive)
GI50 (HT-29): 29.7 µM (inactive)
GI50 (UO-31): 35.9 µM (inactive)
GI50 (OVCAR-5): 91.2 µM (inactive)
GI50 (M14): 42.9 µM (inactive)
GI50 (CAKI-1): 57.3 µM (inactive)
GI50 (ACHN): 37 µM (inactive)
GI50 (OVCAR-4): 38.4 µM (inactive)
GI50 (MDA-MB-435): 83 µM (inactive)
GI50 (SK-MEL-2): 68.7 µM (inactive)
GI50 (IGROV-1): 64.4 µM (inactive)
GI50 (MOLT-4): 20.7 µM (inactive)
GI50 (A498): 75.5 µM (inactive)
GI50 (SW-620): 50 µM (inactive)
GI50 (TK-10): 65 µM (inactive)
GI50 (SK-MEL-5): 22.8 µM (inactive)
GI50 (COLO 205): 20 µM (inactive)
GI50 (MDA-MB-231): 56.2 µM (inactive)
GI50 (PC-3): 31.8 µM (inactive)
GI50 (SF-539): 15 µM (inactive)
GI50 (MDA-N): 47.1 µM (inactive)
GI50 (EKVX): 24.3 µM (inactive)
GI50 (HCT-116): 54.7 µM (inactive)
GI50 (UACC-257): 79.4 µM (inactive)
GI50 (NCI-H460): 36.3 µM (inactive)
GI50 (OVCAR-8): 52.6 µM (inactive)
GI50 (NCI/ADR-RES): 21.7 µM (inactive)
GI50 (HOP-92): 36.8 µM (inactive)
GI50 (CCRF-CEM): 28.6 µM (inactive)
